Measured values as given in ChEMBL document CHEMBL1909046, “DrugMatrix in vitro pharmacology data”.

Tests used:
[1] = target: T1, Alpha-1A adrenergic receptor (Rattus norvegicus, UniProt P43140); test: DRUGMATRIX: Alpha-1A adrenergic receptor radioligand binding (ligand: prazosin); assay type: cell membranes, Wistar, Submaxillary gland, Membrane; conditions: Not Active = under 50% inhibition at 10 µM
T1 sequence (P43140 whole entry): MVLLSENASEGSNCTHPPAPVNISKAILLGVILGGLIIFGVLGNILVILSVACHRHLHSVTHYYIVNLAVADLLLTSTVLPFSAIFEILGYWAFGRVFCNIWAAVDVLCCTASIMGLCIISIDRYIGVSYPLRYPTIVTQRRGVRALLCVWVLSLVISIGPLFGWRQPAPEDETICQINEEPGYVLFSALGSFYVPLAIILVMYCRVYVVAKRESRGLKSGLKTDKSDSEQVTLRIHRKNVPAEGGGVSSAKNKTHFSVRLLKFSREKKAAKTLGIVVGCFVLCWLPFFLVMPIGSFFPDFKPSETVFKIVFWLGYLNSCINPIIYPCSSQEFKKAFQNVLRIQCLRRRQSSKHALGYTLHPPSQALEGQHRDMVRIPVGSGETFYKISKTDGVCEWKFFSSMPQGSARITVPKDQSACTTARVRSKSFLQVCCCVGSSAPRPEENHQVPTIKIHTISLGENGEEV

[2] = DRUGMATRIX: Imidazoline I2, Central radioligand binding (ligand: [3H] Idazoxan); assay type: cell membranes, Rattus norvegicus, Wistar, Cerebral cortex, Membrane; conditions: Not Active = under 50% inhibition at 10 µM
[3] = DRUGMATRIX: Nicotinic Acetylcholine radioligand binding (ligand: [125I] Epibatidine); assay type: cell membranes, Membrane; conditions: imr-32; Not Active = under 50% inhibition at 10 µM
Substance-K receptor = target: T2, Substance-K receptor (Homo sapiens, UniProt P21452); assay type: cell membranes, CHO, Membrane; further: in other assays of this panel Not Active means under 50% inhibition at 10 µM
T2 sequence (P21452 whole entry): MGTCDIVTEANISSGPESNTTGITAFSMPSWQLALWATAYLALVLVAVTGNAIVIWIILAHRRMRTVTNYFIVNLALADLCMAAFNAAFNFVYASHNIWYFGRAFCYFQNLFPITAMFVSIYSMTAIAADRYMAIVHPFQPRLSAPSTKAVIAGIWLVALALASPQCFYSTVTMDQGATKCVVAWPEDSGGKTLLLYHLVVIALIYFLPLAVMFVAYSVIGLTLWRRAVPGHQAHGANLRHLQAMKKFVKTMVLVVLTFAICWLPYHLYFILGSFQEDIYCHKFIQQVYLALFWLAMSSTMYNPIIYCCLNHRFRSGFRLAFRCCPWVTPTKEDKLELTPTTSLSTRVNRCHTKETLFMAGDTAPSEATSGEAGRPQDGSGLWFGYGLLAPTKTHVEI

[4] = DRUGMATRIX: Glutamate, NMDA, Agonism radioligand binding (ligand: [3H] CGP-39653); assay type: cell membranes, Rattus norvegicus, Wistar, Cerebral cortex, Membrane; conditions: Not Active = under 50% inhibition at 10 µM
[5] = DRUGMATRIX: GABAA, Chloride Channel, TBOB radioligand binding (ligand: [3H] TBOB); assay type: cell membranes, Rattus norvegicus, Wistar, Cerebral cortex, Membrane; conditions: Not Active = under 50% inhibition at 10 µM
[6] = target: Aldo-keto reductase family 1 member B1 (Rattus norvegicus, UniProt P07943); assay type: tissue-based, Lens of camera-type eye;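 further: inhibition of aldose reductase enzyme activity, measured with DL-glyceraldehyde as the substrate; in other assays of this panel Not Active means under 50% inhibition at 10 µM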
[7] = DRUGMATRIX: Platelet-Derived Growth Factor (PDGF) radioligand binding (ligand: [125I] PDGF); assay type: cell-based; conditions: nih3t3; Not Active = under 50% inhibition at 10 µM
[8] = target: T3, 5-hydroxytryptamine receptor 2C (Homo sapiens, UniProt P28335); test: DRUGMATRIX: Serotonin (5-Hydroxytryptamine) 5-HT2C radioligand binding (ligand: [3H] Mesulergine); assay type: cell membranes, CHO-K1, Membrane; conditions: Not Active = under 50% inhibition at 10 µM
T3 sequence (P28335 whole entry): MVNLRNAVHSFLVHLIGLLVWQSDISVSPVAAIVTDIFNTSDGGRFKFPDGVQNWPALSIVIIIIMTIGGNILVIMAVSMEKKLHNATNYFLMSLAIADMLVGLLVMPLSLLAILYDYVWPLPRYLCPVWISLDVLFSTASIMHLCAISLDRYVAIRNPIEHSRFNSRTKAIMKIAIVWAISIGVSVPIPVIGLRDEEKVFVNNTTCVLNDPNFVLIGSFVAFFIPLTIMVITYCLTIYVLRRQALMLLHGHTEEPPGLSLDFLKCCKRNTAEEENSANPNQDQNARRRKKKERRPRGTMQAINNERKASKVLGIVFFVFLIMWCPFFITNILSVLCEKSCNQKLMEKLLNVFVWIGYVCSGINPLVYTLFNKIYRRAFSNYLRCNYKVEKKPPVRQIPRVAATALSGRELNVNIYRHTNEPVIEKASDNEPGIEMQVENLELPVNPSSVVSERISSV

[9] = target: T4, Muscarinic acetylcholine receptor M5 (Homo sapiens, UniProt P08912); assay type: cell membranes, CHO-K1, Membrane; further: in other assays of this panel Not Active means under 50% inhibition at 10 µM
T4 sequence (P08912 whole entry): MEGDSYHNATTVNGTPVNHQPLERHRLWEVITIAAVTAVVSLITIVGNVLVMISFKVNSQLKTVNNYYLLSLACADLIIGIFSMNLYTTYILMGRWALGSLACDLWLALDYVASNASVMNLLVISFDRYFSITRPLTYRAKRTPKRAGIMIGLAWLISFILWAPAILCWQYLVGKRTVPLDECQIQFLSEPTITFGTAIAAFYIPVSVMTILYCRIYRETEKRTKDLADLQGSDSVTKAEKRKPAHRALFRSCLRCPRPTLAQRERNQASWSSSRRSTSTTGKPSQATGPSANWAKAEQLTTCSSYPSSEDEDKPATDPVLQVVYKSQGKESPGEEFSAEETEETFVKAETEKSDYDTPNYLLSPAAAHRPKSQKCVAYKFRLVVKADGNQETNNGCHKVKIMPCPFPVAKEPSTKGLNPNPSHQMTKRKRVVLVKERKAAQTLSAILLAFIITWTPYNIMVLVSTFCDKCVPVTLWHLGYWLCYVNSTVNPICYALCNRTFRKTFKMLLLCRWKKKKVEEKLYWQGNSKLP

Adenosine receptor A1 = target: T5, Adenosine receptor A1 (Homo sapiens, UniProt P30542); assay type: cell membranes, CHO, Membrane; conditions: cho;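 further: radioligand binding assay at the adenosine A1 receptor, with DPCPX serving as the labelled ligand; in other assays of this panel Not Active means under 50% inhibition at 10 µM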
T5 sequence (P30542 whole entry): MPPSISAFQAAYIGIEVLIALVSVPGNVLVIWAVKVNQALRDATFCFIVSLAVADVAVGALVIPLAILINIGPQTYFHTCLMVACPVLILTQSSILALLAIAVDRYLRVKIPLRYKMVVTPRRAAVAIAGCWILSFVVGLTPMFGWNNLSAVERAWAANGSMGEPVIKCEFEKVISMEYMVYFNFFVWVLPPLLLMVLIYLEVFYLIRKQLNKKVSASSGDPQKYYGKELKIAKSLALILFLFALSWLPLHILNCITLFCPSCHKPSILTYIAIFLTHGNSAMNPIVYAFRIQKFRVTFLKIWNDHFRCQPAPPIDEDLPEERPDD

Melanocortin receptor 4 = Melanocortin receptor 4 (Homo sapiens, UniProt P32245); assay type: cell membranes, Membrane; conditions: hek293; further: in other assays of this panel Not Active means under 50% inhibition at 10 µM
Melanocortin receptor 4, sequence (P32245 whole entry): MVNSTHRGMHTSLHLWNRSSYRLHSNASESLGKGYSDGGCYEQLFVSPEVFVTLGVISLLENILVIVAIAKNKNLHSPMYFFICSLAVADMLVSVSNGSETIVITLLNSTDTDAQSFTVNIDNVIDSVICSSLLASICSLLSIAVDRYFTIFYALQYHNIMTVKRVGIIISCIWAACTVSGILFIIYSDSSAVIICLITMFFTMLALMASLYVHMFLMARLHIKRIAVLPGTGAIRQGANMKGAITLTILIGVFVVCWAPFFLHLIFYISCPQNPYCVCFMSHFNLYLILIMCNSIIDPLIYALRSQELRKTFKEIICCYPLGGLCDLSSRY

| Compound | IC50 [1] | IC50 [2] | Ki [2] | IC50 [3] | Ki [3] | IC50 (Substance-K receptor; cho) | IC50 [4] | Ki [4] | IC50 [5] | Ki [5] | IC50 [6] | IC50 [7] | Ki [7] | IC50 ([8]; cho-k1) | IC50 ([9]; cho-k1) | IC50 (Adenosine receptor A1) | IC50 (Melanocortin receptor 4) | other results |
| --- | --- | --- | --- | --- | --- | --- | --- | --- | --- | --- | --- | --- | --- | --- | --- | --- | --- | --- |
| O=[N+]([O-])c1cc([As](=O)(O)O)ccc1O [ROXARSONE] | Not Active | Not Active | Not Active | Not Active | Not Active | Not Active | Not Active | Not Active | Not Active | Not Active | Not Active | Not Active | Not Active | Not Active | Not Active | Not Active | Not Active | Ki [1]: Not Active; Ki (Substance-K receptor; cho): Not Active; Ki [6]: Not Active; Ki ([8]; cho-k1): Not Active; Ki ([9]; cho-k1): Not Active; Ki (Adenosine receptor A1): Not Active; Ki (Melanocortin receptor 4): Not Active |
| CC1CN(c2cc3c(cc2F)c(=O)c(C(=O)O)cn3-c2ccc(F)cc2F)CCN1 (centres undefined) [TEMAFLOXACIN] | Not Active | Not Active | Not Active | Not Active | Not Active | Not Active | Not Active | Not Active | Not Active | Not Active | Not Active | Not Active | Not Active | Not Active | Not Active | Not Active | Not Active | – |
| COc1ccc(CCN2CCC(Nc3nc4ccccc4n3Cc3ccc(F)cc3)CC2)cc1 [ASTEMIZOLE] | – | – | – | – | – | – | – | – | – | – | Not Active | – | – | – | – | Not Active | – | IC50 ([1]; read-out: IC50): 24 nM; Ki ([1]; read-out: Ki): 9.9 nM; IC50 (Substance-K receptor; read-out: IC50): 2990 nM; Ki (Substance-K receptor; read-out: Ki): 995 nM; IC50 ([9]; read-out: IC50): 703 nM; Ki ([9]; read-out: Ki): 505 nM |
| CC1(C)[C@H]2CC[C@]1(C)C(=O)C2 [(-)-CAMPHOR] | Not Active | Not Active | Not Active | Not Active | Not Active | Not Active | Not Active | Not Active | Not Active | Not Active | Not Active | Not Active | Not Active | Not Active | Not Active | Not Active | Not Active | – |
| O=C(CCCN1CCC(O)(c2ccc(Cl)cc2)CC1)c1ccc(F)cc1 [HALOPERIDOL] | – | – | – | – | – | Not Active | – | – | – | – | Not Active | – | – | – | – | Not Active | Not Active | – |
| CN(C)CCCN1c2ccccc2CCc2ccc(Cl)cc21 [CLOMIPRAMINE] | – | – | – | – | – | Not Active | – | – | – | – | Not Active | – | – | – | – | Not Active | Not Active | IC50 ([8]; read-out: IC50): 34 nM; Ki ([8]; read-out: Ki): 18 nM; IC50 ([9]; read-out: IC50): 53 nM; Ki ([9]; read-out: Ki): 38 nM |
| O=C1c2c(O)ccc(O)c2C(=O)c2c(NCCNCCO)ccc(NCCNCCO)c21 [MITOXANTRONE] | Not Active | Not Active | Not Active | Not Active | Not Active | Not Active | Not Active | Not Active | Not Active | Not Active | Not Active | Not Active | Not Active | – | Not Active | Not Active | Not Active | – |
| CN1CCN2c3ccccc3Cc3ccccc3C2C1 (centres undefined) [MIANSERIN] | – | – | – | – | – | Not Active | – | – | – | – | Not Active | – | – | – | – | Not Active | Not Active | IC50 ([9]; read-out: IC50): 320 nM; Ki ([9]; read-out: Ki): 230 nM |
| CSc1ccc2c(c1)N(CCC1CCCCN1C)c1ccccc1S2 (centres undefined) [THIORIDAZINE] | – | – | – | – | – | Not Active | – | – | – | – | Not Active | – | – | – | – | Not Active | Not Active | IC50 ([1]; read-out: IC50): 5.09 nM; Ki ([1]; read-out: Ki): 2.06 nM |
| Clc1ccccc1C(c1ccccc1)(c1ccccc1)n1ccnc1 [CLOTRIMAZOLE] | – | – | – | – | – | – | – | – | – | – | Not Active | – | – | – | – | – | Not Active | IC50 ([1]; read-out: IC50): 26300 nM; Ki ([1]; read-out: Ki): 10700 nM; IC50 (Substance-K receptor; read-out: IC50): 10100 nM; Ki (Substance-K receptor; read-out: Ki): 3380 nM; IC50 ([8]; read-out: IC50): 14500 nM; Ki ([8]; read-out: Ki): 7580 nM |
| CC(C)(O)c1ccccc1CC[C@@H](SCC1(CC(=O)O)CC1)c1cccc(/C=C/c2ccc3ccc(Cl)cc3n2)c1 [MONTELUKAST] | Not Active | – | – | – | – | – | – | – | – | – | Not Active | – | – | Not Active | – | Not Active | Not Active | IC50 (Substance-K receptor; read-out: IC50): 3820 nM; Ki (Substance-K receptor; read-out: Ki): 1270 nM |
| COC(=O)[C@@H]1[C@H]2C[C@H]3c4[nH]c5ccccc5c4CCN3C[C@@H]2CC[C@@H]1O [YOHIMBINE] | – | – | – | Not Active | Not Active | Not Active | Not Active | Not Active | Not Active | Not Active | Not Active | Not Active | Not Active | Not Active | Not Active | Not Active | Not Active | IC50 ([2]; read-out: IC50): 157 nM; Ki ([2]; read-out: Ki): 105 nM |
| COc1cccc(C2(O)CCCCC2CN(C)C)c1 (centres undefined) [TRAMADOL] | Not Active | – | – | – | – | Not Active | – | – | – | – | Not Active | – | – | Not Active | Not Active | Not Active | Not Active | – |
